Assay results from patent US4416877A, “Anti-atherosclerotic pharmaceutical compositions containing diphosphonate compounds” (priority 1979, dated 1983).
Entries after “also recorded” stand apart in the source; their conditions may differ. Where a name gives a salt, the structure may show the parent alone. Read-outs that look alike come from different tables or passages of the source.

How the values were obtained:
tissue cholesterol = experiment: Effects in cholesterol fed rats (serum, liver and aorta lipids); format: in vivo; conditions: for change in vivo at 200 mg/kg/day: Rattus norvegicus; for liver total lipids and/or liver cholesterol: cholesterol fed rats
Protocol: Effects of diphosphonates of formula (I) in cholesterol fed rats
In order to increase tissue cholesterol, especially liver, rats were fed a high fat-high cholesterol diet for 10 days to 3 months, with the following diet composition: casein 20%, butter 37%, cellulose 9.1%, dextrose 18,9%, cholesterol 4.5%, sodium cholate 1.8%, minerals 7.3%, vitamins 1%, choline 0.4%.
The rats were then fed normal food and were treated for 10 days to 3 months with different compounds (200 mg/kg/day). Serum parameters described above were measured. Liver and aorta lipids were extracted according to J. Folch et al (J. Biochem. 226, 497, 1957). Total lipids were determined by the sulfophosphovanillic reaction (see N. Zolner and K. Kirsch, Z. Ges. exp. Med. 135, 545, 1962) and cholesterol by the Liebermann-Burchard reaction or appropriate enzymatic reaction.
(§1) In above Table IV, results are given as % control values. Except for serum calcium, values which differ from control values by less than 15% are considered as non significant (NS).
Serum free fatty acids, triglycerides and phospholipids were measured in normal rats (N) and rats previously fed a cholesterol diet for 10 days (C.F.)
Serum α/β cholesterol, total lipids and cholesterol of liver and aorta were determined in normal rats (N) and rats which had previously been fed on high cholesterol diet (C.F.)

lipid metabolism = experiment: Effects of diphosphonates on lipid metabolism in normal rats (serum lipids, α/β cholesterol); format: in vivo, male Wistar rats; conditions: for change in vivo at 200 mg/kg/day: Rattus norvegicus, po; for increased HDL lipids, especially HDL cholesterol: normal rats; for decreases in serum triglycerides / increase in serum phospholipid / α-cholesterol/β-cholesterol ratio / lipoprotein cholesterol: rats
Protocol: Effects of diphosphonates of formula (I) on lipid metabolism in normal rats Groups of 4 to 5 normal male Wistar rats, weighing about 200 g were treated with diphosphonates (200 mg/kg/day) p.o. for 4 to 21 days. Water soluble compounds were given in solution in 24 mM bicarbonate buffer. Lipid soluble compounds were given in corn oil. The rats were weighed, sacrificed by decapitation (under light ether anesthesia) after overnight fasting. Blood was collected and serum used for analysis. The following blood parameters reflecting changes in lipid metabolism are reported: […]
free fatty acids measured according to W. G. Duncombe (Clin. Acta 9, 122, 1964) triglycerides enzymatic method (Boehringer Mannheim Kit 126 012) phospholipids: molybdate/vanadate reaction (Boehringer Mannheim Kit 124 974) β-lipoprotein cholesterol was measured after heparin, CaCl2 precipitation according to M. Burstein et al. (La Presse Medicale 43, 974, 1958) and to D. Watson (Clin. Chim. Acta 5, 637, 1960).
as §1
Serum free fatty acids, triglycerides and phospholipids were measured in normal rats (N) and rats previously fed a cholesterol diet for 10 days (C.F.) Serum α/β cholesterol, total lipids and cholesterol of liver and aorta were determined in normal rats (N) and rats which had previously been fed on high cholesterol diet (C.F.)

serum calcium = experiment: Effects of acid and salt form of diphosphonates in hypercalceamic rats; format: in vivo, male Wistar rats
Protocol: Effects of acid and salt form of diphosphonates of formula (I) in hypercalceamic rats
To verify this activity the acid form of compound 4 and is monosodium salt counterpart (compound 10) were also tested by using a protol similar to the one described by Potokar (see above). Briefly, groups of 4 male Wistar rats received acid or salt form of compound 4 as 0.05% solution in drinking water corresponding to about 50 mg/kg/day. The rats were treated with the compounds for 15 days.
Serum calcium was measured in hypercalceamic rats.

[1] = cholesterol fed rats (C.F), 200 mg/kg/day, read-out: Liver Chol. (% control values)
[2] = cholesterol fed rats (C.F), 200 mg/kg/day, read-out: Liver Total Lipids (% control values)
[3] = cholesterol fed rats (C.F), 200 mg/kg/day
[4] = normal rats (N), 200 mg/kg/day p.o., read-out: Serum Free Fatty Acids (% control values)
[5] = normal rats (N), 200 mg/kg/day p.o., read-out: Serum Phospholipids (% control values)
[6] = normal rats (N), 200 mg/kg/day p.o., read-out: Serum Triglycerides (% control values)
[7] = normal rats (N), 200 mg/kg/day p.o., monosodium salt, 200 mg/kg/day
[8] = normal rats (N), 200 mg/kg/day p.o.
[9] = normal rats (N), 200 mg/kg/day p.o., read-out: Serum Chol. α/β (% control values)

Compound: COP(=O)(OC)C(O)(c1ccc(Cl)cc1)P(=O)(OC)OC [Compound 4, Tetramethyl 1-(p-chlorophenyl)methane 1-hydroxy 1,1-diphosphonate]
- change in vivo at 200 mg/kg/day (tissue cholesterol; [1]): -56%
- change in vivo at 200 mg/kg/day (tissue cholesterol; [2]): -31%
- liver total lipids and/or liver cholesterol (tissue cholesterol): decreased significantly
- Aorta Chol. (% control values) (tissue cholesterol; [3]): NS (Except for serum calcium, values which differ from control values by less than 15% are considered as non significant (NS))
- Aorta Total Lipids (% control values) (tissue cholesterol; [3]): -47%
- Serum Chol. α/β (% control values) (tissue cholesterol; [3]): +220%
- Serum Free Fatty Acids (% control values) (tissue cholesterol; [3]): -67%
- Serum Phospholipids (% control values) (tissue cholesterol; [3]): +21%
- Serum Triglycerides (% control values) (tissue cholesterol; [3]): -21%
- change in vivo at 200 mg/kg/day (lipid metabolism; [4]): -48%
- change in vivo at 200 mg/kg/day (lipid metabolism; [5]): 43%
- change in vivo at 200 mg/kg/day (lipid metabolism; [6]): -24%
- increased HDL lipids, especially HDL cholesterol (lipid metabolism): observed most dramatically
- decreases in serum triglycerides (lipid metabolism): Significant decreases
- increase in serum phospholipid (lipid metabolism): found to increase; also recorded: at least two fold the most active
- α-cholesterol/β-cholesterol ratio / lipoprotein cholesterol (lipid metabolism): highly significant activity

Compound: COP(=O)(OC)C(O)(C(C)(C)Oc1ccc(Cl)cc1)P(=O)(OC)OC [Compound 7, Tetramethyl 2,2-dimethyl 2(p-chlorophenoxy) ethane 1-hydroxy 1,1-diphosphonate]
- change in vivo at 200 mg/kg/day (tissue cholesterol; [1]): -25%
- change in vivo at 200 mg/kg/day (tissue cholesterol; [2]): < 15%
- liver total lipids and/or liver cholesterol (tissue cholesterol): decreased significantly
- Aorta Chol. (% control values) (tissue cholesterol; [3]): -19%
- Aorta Total Lipids (% control values) (tissue cholesterol; [3]): -27%
- Serum Chol. α/β (% control values) (tissue cholesterol; [3]): +27%
- Serum Free Fatty Acids (% control values) (tissue cholesterol; [3]): -40%
- Serum Phospholipids (% control values) (tissue cholesterol; [3]): NS (Except for serum calcium, values which differ from control values by less than 15% are considered as non significant (NS))
- Serum Triglycerides (% control values) (tissue cholesterol; [3]): NS (Except for serum calcium, values which differ from control values by less than 15% are considered as non significant (NS))
- change in vivo at 200 mg/kg/day (lipid metabolism; [4]): 28%
- change in vivo at 200 mg/kg/day (lipid metabolism; [5]): 26%
- change in vivo at 200 mg/kg/day (lipid metabolism; [6]): -33%
- decreases in serum triglycerides (lipid metabolism): Significant decreases
- increase in serum phospholipid (lipid metabolism): found to increase

Compound: COP(=O)(OC)C(O)(c1ccc(C(=O)c2ccc(Cl)cc2)cc1)P(=O)(OC)OC [Compound 9, Tetramethyl 1[4(4'-chlorobenzoyl)-phenyl]methane 1-hydroxy 1,1-diphosphonate]
- change in vivo at 200 mg/kg/day (tissue cholesterol; [1]): < 15%
- change in vivo at 200 mg/kg/day (tissue cholesterol; [2]): -25%
- liver total lipids and/or liver cholesterol (tissue cholesterol): decreased significantly
- Aorta Chol. (% control values) (tissue cholesterol; [3]): -39%
- Aorta Total Lipids (% control values) (tissue cholesterol; [3]): NS (Except for serum calcium, values which differ from control values by less than 15% are considered as non significant (NS))
- Serum Chol. α/β (% control values) (tissue cholesterol; [3]): +51%
- Serum Free Fatty Acids (% control values) (tissue cholesterol; [3]): -52%
- Serum Phospholipids (% control values) (tissue cholesterol; [3]): +36%
- Serum Triglycerides (% control values) (tissue cholesterol; [3]): -17%
- change in vivo at 200 mg/kg/day (lipid metabolism; [4]): -38%
- change in vivo at 200 mg/kg/day (lipid metabolism; [5]): < 15%
- change in vivo at 200 mg/kg/day (lipid metabolism; [6]): -16%
- increased HDL lipids, especially HDL cholesterol (lipid metabolism): observed most dramatically
- decreases in serum triglycerides (lipid metabolism): Significant decreases
- α-cholesterol/β-cholesterol ratio / lipoprotein cholesterol (lipid metabolism): highly significant activity

Compound: O=P(O)(O)C(O)(c1ccc(Cl)cc1)P(=O)(O)O [Compound 10, 1-hydroxy 1 (p-chlorophenyl)methane 1,1-diphosphonic acid, monosodium salt]
- Serum Free Fatty Acids (% control values) (lipid metabolism; [7]): -27%
- Serum Triglycerides (% control values) (lipid metabolism; [7]): -17%
- Serum Calcium (% control values) (serum calcium; 15% NS limit does not apply, monosodium salt): -14%
- decrease of serum calcium (serum calcium; about 50 mg/kg/day in drinking water, 15 days, listed as salt form of compound 4, monosodium salt): 14%

Compound: COP(=O)(OC)OC(c1ccccc1)P(=O)(OC)OC (stereo not drawn) [Compound 13, dimethyl α(dimethoxyphosphinyl) benzylphosphate]
- liver total lipids and/or liver cholesterol (tissue cholesterol): decreased significantly
- Liver Chol. (% control values) (tissue cholesterol; [3]): -51%
- Liver Total Lipids (% control values) (tissue cholesterol; [3]): -18%
- Serum Chol. α/β (% control values) (tissue cholesterol; [3]): +25%
- Serum Free Fatty Acids (% control values) (lipid metabolism; [8]): -21%
- Serum Phospholipids (% control values) (lipid metabolism; [8]): +21%
- Serum Triglycerides (% control values) (lipid metabolism; [8]): +32%
- increase in serum phospholipid (lipid metabolism): found to increase

Compound: COP(=O)(OC)OC(c1ccc(C)cc1)P(=O)(OC)OC (centres unmarked) [Compound 18]
- change in vivo at 200 mg/kg/day (tissue cholesterol; [2]): < 15%
- change in vivo at 200 mg/kg/day (lipid metabolism; [9]): < 15%
- change in vivo at 200 mg/kg/day (lipid metabolism; [5]): < 15%
- change in vivo at 200 mg/kg/day (lipid metabolism; [6]): -33%

Compound: COP(=O)(OC)OC(C(C)(C)c1ccc(Cl)cc1)P(=O)(OC)OC (centres unmarked) [Compound 21, Dimethyl 1-(dimethoxyphosphinyl) 2,2-dimethyl 2(p-chlorophenyl) ethylphosphate]
- change in vivo at 200 mg/kg/day (tissue cholesterol; [1]): -46%
- change in vivo at 200 mg/kg/day (tissue cholesterol; [2]): -36%
- liver total lipids and/or liver cholesterol (tissue cholesterol): decreased significantly
- Serum Chol. α/β (% control values) (tissue cholesterol; [3]): -32%
- Serum Phospholipids (% control values) (tissue cholesterol; [3]): +24%
- Serum Triglycerides (% control values) (tissue cholesterol; [3]): +28%
- change in vivo at 200 mg/kg/day (lipid metabolism; [9]): < 15%
- change in vivo at 200 mg/kg/day (lipid metabolism; [5]): 16%
- change in vivo at 200 mg/kg/day (lipid metabolism; [6]): -38%
- decreases in serum triglycerides (lipid metabolism): Significant decreases
- increase in serum phospholipid (lipid metabolism): found to increase

Compound: CCOP(=O)(OCC)C(Cc1ccc(Cl)cc1)P(=O)(OCC)OCC [Compound 27]
- change in vivo at 200 mg/kg/day (tissue cholesterol; [1]): < 15%
- change in vivo at 200 mg/kg/day (tissue cholesterol; [2]): < 15%
- liver total lipids and/or liver cholesterol (tissue cholesterol): decreased significantly
- Aorta Chol. (% control values) (tissue cholesterol; [3]): NS (Except for serum calcium, values which differ from control values by less than 15% are considered as non significant (NS))
- Aorta Total Lipids (% control values) (tissue cholesterol; [3]): -60%
- Serum Chol. α/β (% control values) (tissue cholesterol; [3]): -35%
- Serum Free Fatty Acids (% control values) (tissue cholesterol; [3]): -65%
- Serum Phospholipids (% control values) (tissue cholesterol; [3]): NS (Except for serum calcium, values which differ from control values by less than 15% are considered as non significant (NS))
- Serum Triglycerides (% control values) (tissue cholesterol; [3]): -24%
- change in vivo at 200 mg/kg/day (lipid metabolism; [4]): -44%
- change in vivo at 200 mg/kg/day (lipid metabolism; [5]): < 15%
- change in vivo at 200 mg/kg/day (lipid metabolism; [6]): -16%
- decreases in serum triglycerides (lipid metabolism): Significant decreases

Compound: COP(=O)(OC)C(Cc1ccc(Cl)cc1)P(=O)(OC)OC [Compound 35]
- change in vivo at 200 mg/kg/day (tissue cholesterol; [1]): -19%
- change in vivo at 200 mg/kg/day (tissue cholesterol; [2]): < 15%
- liver total lipids and/or liver cholesterol (tissue cholesterol): decreased significantly
- change in vivo at 200 mg/kg/day (lipid metabolism; [9]): 75%
- change in vivo at 200 mg/kg/day (lipid metabolism; [4]): -44%
- change in vivo at 200 mg/kg/day (lipid metabolism; [5]): 51%
- change in vivo at 200 mg/kg/day (lipid metabolism; [6]): < 15%
- increased HDL lipids, especially HDL cholesterol (lipid metabolism): observed most dramatically
- increase in serum phospholipid (lipid metabolism): found to increase; also recorded: at least two fold the most active
- α-cholesterol/β-cholesterol ratio / lipoprotein cholesterol (lipid metabolism): highly significant activity
